Assay results reported in US8642609B2, “Modulators of ATP-binding cassette transporters” (Vertex Pharmaceuticals Incorporated, priority 2003, dated 2014).

Target: T1, ΔF508-CFTR (Homo sapiens, UniProt P13569, DEL508-508)
T1 construct: expressed in transfected cells
Test: Membrane potential optical assay (FRET/VIPR), identification of correction compounds
Format: cell-based
Details: for Emax: relative efficacy
Excerpt: I) Membrane Potential Optical Methods for Assaying ΔF508-CFTR Modulation Properties of Compounds
The optical membrane potential assay utilized voltage-sensitive FRET sensors described by Gonzalez and Tsien (See, Gonzalez, J. E. and R. Y. Tsien (1995) “Voltage sensing by fluorescence resonance energy transfer in single cells” Biophys J 69(4): 1272-80, and Gonzalez, J. E. and R. Y. Tsien (1997) “Improved indicators of cell membrane potential that use fluorescence resonance energy transfer” Chem Biol 4(4): 269-77) in combination with instrumentation for measuring fluorescence changes such as the Voltage/Ion Probe Reader (VIPR) (See, Gonzalez, J. E., K. Oades, et al. (1999) “Cell-based assays and instrumentation for screening ion-channel targets” Drug Discov Today 4(9): 431-439).
These voltage sensitive assays are based on the change in fluorescence resonant energy transfer (FRET) between the membrane-soluble, voltage-sensitive dye, DiSBAC2(3), and a fluorescent phospholipid, CC2-DMPE, which is attached to the outer leaflet of the plasma membrane and acts as a FRET donor. Changes in membrane potential (Vm) cause the negatively charged DiSBAC2(3) to redistribute across the plasma membrane and the amount of energy transfer from CC2-DMPE changes accordingly. The changes in fluorescence emission were monitored using VIPR™ II, which is an integrated liquid handler and fluorescent detector designed to conduct cell-based screens in 96- or 384-well microtiter plates.
Identification of Correction Compounds
To identify small molecules that correct the trafficking defect associated with ΔF508-CFTR; a single-addition HTS assay format was developed. The cells were incubated in serum-free medium for 16 hrs at 37° C. in the presence or absence (negative control) of test compound. As a positive control, cells plated in 384-well plates were incubated for 16 hrs at 27° C. to “temperature-correct” ΔF508-CFTR. The cells were subsequently rinsed 3× with Krebs Ringers solution and loaded with the voltage-sensitive dyes. To activate ΔF508-CFTR, 10 μM forskolin and the CFTR potentiator, genistein (20 μM), were added along with Cl^−-free medium to each well. The addition of Cl^−-free medium promoted Cl^− efflux in response to ΔF508-CFTR activation and the resulting membrane depolarization was optically monitored using the FRET-based voltage-sensor dyes.
NIH3T3 mouse fibroblasts stably expressing ΔF508-CFTR are used for optical measurements of membrane potential. The cells are maintained at 37° C. in 5% CO2 and 90% humidity in Dulbecco's modified Eagle's medium supplemented with 2 mM glutamine, 10% fetal bovine serum, 1×NEAA, β-ME, 1× pen/strep, and 25 mM HEPES in 175 cm^2 culture flasks. For all optical assays, the cells were seeded at 30,000/well in 384-well matrigel-coated plates and cultured for 2 hrs at 37° C. before culturing at 27° C. for 24 hrs. for the potentiator assay. For the correction assays, the cells are cultured at 27° C. or 37° C. with and without compounds for 16-24 hours B) Electrophysiological Assays for assaying ΔF508-CFTR modulation properties of compounds

T1 sequence (P13569 with tags, fused parts or gaps DEL508-508): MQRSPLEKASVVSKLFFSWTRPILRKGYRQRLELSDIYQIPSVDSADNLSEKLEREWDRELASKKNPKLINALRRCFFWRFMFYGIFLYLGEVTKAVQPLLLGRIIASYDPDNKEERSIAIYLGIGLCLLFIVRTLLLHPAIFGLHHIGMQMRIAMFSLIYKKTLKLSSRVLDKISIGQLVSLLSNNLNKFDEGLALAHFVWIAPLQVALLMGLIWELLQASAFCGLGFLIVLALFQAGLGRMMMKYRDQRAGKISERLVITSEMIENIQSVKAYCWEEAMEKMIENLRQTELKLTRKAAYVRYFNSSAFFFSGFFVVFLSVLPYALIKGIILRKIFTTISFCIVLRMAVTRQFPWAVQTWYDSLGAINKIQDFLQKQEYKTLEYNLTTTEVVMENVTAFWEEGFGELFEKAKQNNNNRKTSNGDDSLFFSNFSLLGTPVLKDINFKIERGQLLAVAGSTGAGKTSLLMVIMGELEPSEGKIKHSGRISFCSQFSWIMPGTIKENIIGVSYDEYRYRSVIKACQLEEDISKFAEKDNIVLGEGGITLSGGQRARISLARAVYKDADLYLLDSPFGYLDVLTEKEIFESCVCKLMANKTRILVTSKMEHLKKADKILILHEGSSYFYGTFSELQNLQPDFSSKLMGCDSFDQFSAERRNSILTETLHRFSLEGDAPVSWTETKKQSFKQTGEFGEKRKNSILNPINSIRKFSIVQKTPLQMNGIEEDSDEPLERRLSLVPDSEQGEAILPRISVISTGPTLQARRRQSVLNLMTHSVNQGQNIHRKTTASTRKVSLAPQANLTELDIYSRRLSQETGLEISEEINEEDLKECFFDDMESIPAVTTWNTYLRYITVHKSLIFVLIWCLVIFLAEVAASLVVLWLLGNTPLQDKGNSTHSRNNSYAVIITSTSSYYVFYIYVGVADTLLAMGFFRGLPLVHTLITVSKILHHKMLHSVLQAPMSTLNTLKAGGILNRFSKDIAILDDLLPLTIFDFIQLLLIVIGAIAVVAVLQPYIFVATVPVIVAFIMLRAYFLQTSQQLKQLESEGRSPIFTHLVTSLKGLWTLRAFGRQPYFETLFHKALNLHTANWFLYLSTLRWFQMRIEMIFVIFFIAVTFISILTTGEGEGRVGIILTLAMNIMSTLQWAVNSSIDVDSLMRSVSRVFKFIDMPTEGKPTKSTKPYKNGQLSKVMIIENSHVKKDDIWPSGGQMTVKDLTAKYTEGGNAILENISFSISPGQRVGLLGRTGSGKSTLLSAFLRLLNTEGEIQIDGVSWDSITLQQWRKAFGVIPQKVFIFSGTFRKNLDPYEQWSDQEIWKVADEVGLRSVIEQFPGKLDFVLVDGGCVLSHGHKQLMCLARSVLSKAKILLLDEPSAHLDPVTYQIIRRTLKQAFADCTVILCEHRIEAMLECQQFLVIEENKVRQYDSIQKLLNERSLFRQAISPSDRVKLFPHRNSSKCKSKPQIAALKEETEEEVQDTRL

| EC50 [µM] | Emax [%] | SMILES |
| --- | --- | --- |
| 25 to 60 | < 25 | CC(c1nc2ccccc2c(=O)n1C)N1CCC(N)CC1 (stereo not shown) [compound 180] |
| 10 to 25 | 25 to 100 | CC(c1nc2cc(Cl)ccc2c(=O)n1C)N1CCN(C(=O)c2cccc(C(F)(F)F)c2)CC1 (stereo not shown) [compound 101] |
| < 10 | 25 to 100 | CC(c1nc2ccc(Br)cc2c(=O)n1C)N1CCN(S(=O)(=O)c2ccc(Br)cc2)CC1 (stereo not shown) [compound 118] |
| < 10 | 25 to 100 | COc1ccc(S(=O)(=O)N2CCN(C(C)c3nc(NCc4ccccc4)c4ccccc4n3)CC2)cc1 (stereo not shown) [compound 367] |
| 10 to 25 | 25 to 100 | COc1ccc(S(=O)(=O)N2CCN(C(C)c3nc4ccccc4c(=O)n3C)CC2)cc1 (stereo not shown) [compound 6] |
| 25 to 60 | 25 to 100 | CC(c1nc2ccc(C(N)=O)cc2c(=O)n1C)N1CCN(S(=O)(=O)c2ccc(Cl)cc2)CC1 (stereo not shown) [compound 157] |
| < 10 | > 100 | CCCn1c([C@H](C)N2CCN(S(=O)(=O)c3ccc(Br)cc3)CC2)nc2ccccc2c1=O [compound 147] |
| 25 to 60 | < 25 | CC(c1nc2ccccc2c(=O)n1C)N1CCN(S(=O)(=O)c2cccs2)CC1 (stereo not shown) [compound 274] |
| 10 to 25 | > 100 | CCCn1c(CN2CCN(S(=O)(=O)c3ccc(Cl)cc3)CC2)nc2ccccc2c1=O [compound 151] |
| 25 to 60 | < 25 | CC(c1nc2ccccc2c(=O)n1C)N1CCCNCC1 (stereo not shown) [compound 184] |
| 25 to 60 | 25 to 100 | Cc1ccc(NC(=O)N2CCN(C(C)c3nc4ccc(Cl)cc4c(=O)n3C)CC2)cc1 (stereo not shown) [compound 45] |
| < 10 | > 100 | COc1ccc2nc(C(C)N3CCN(S(=O)(=O)c4ccc(Cl)cc4)CC3)n(C)c(=O)c2c1 (stereo not shown) [compound 136] |
| 10 to 25 | > 100 | COc1ccc(S(=O)(=O)N2CCN(C(C)c3nc(OC4CCCCC4)c4nccnc4n3)CC2)cc1 (stereo not shown) [compound 396] |
| 10 to 25 | < 25 | CC(c1nc2cccc(Cl)c2c(=O)n1C)N1CCN(S(=O)(=O)c2ccccc2)CC1 (stereo not shown) [compound 103] |
| 10 to 25 | > 100 | COc1ccc(S(=O)(=O)N2CCN(C(C)c3nc(OCC4(C)COCOC4)c4ccccc4n3)CC2)cc1 (stereo not shown) [compound 296] |
| < 10 | 25 to 100 | CCc1ccc(S(=O)(=O)N2CCN(C(C)c3nc4ccccc4c(=O)n3C)CC2)cc1 (stereo not shown) [compound 329] |
| 25 to 60 | 25 to 100 | CC(NCCCNS(=O)(=O)c1ccc(Br)cc1)c1nc2ccccc2c(=O)n1C (stereo not shown) [compound 174] |
| < 10 | 25 to 100 | COc1ccc(S(=O)(=O)N2CCN(C(C)c3nc(N4CCCC(C)C4)c4ccccc4n3)CC2)cc1 (stereo not shown) [compound 305] |
| < 10 | > 100 | CCC(c1nc(N2CCCCC2)c2ccccc2n1)N1CCN(S(=O)(=O)c2ccc(OC)cc2)CC1 (stereo not shown) [compound 336] |
| < 10 | 25 to 100 | CCN(CC)c1nc(C(C)N2CCN(S(=O)(=O)c3ccc(Cl)cc3)CC2)nc2ccccc12 (stereo not shown) [compound 235] |
| 25 to 60 | 25 to 100 | CC(c1nc2ccccc2c(=O)n1C)N1CCN(C(=O)Nc2ccc(Cl)cc2)CC1 (stereo not shown) [compound 33] |
| < 10 | 25 to 100 | CC(c1nc2ccccc2c(=O)n1C)N1CCN(S(=O)(=O)c2c(Cl)ccc3nonc23)CC1 (stereo not shown) [compound 254] |
| < 10 | 25 to 100 | COc1ccc(S(=O)(=O)N2CCN(C(C)c3nc4ccc(Cl)cc4c(=O)n3C)CC2)cc1 (stereo not shown) [compound 62] |
| 25 to 60 | < 25 | CC(c1nc2ccc(Cl)cc2c(=O)n1C)N1CCN(C(=O)Nc2ccc(F)cc2F)C(C)C1 (stereo not shown) [compound 3] |
| < 10 | 25 to 100 | COc1ccc(S(=O)(=O)N2CCN(C(C)c3nc(NC4CCCCC4)c4ccccc4n3)CC2)cc1 (stereo not shown) [compound 304] |
| 10 to 25 | < 25 | CC(c1nc2ccccc2c(=O)n1C)N1CCN(C(=O)c2ccccc2)CC1 (stereo not shown) [compound 52] |

| EC50 [µM] | Emax [%] | SMILES |
| --- | --- | --- |
| 10 to 25 | < 25 | CC(c1nc2cc(Cl)ccc2c(=O)n1C)N1CCN(C(=O)c2ccc(F)cc2)CC1 (stereo not shown) [compound 121] |
| 25 to 60 | 25 to 100 | CCC(c1nc2ccccc2c(=O)[nH]1)N1CCN(S(=O)(=O)c2ccc(OC)cc2)CC1 (stereo not shown) [compound 334] |
| < 10 | > 100 | COc1ccc(S(=O)(=O)N2CCN(C(C)c3nc(OC4CCCCC4)c4ccccc4n3)CC2)cc1 (stereo not shown) [compound 298] |
| 10 to 25 | 25 to 100 | COc1ccc(S(=O)(=O)N2CCN(C(C)c3nc(N4CCCC(CO)C4)c4ccccc4n3)CC2)cc1 (stereo not shown) [compound 344] |
| 10 to 25 | 25 to 100 | CC(c1nc2ccccc2c(=O)n1C)N1CCN(S(=O)(=O)c2ccc(Br)s2)CC1 (stereo not shown) [compound 247] |
| 25 to 60 | < 25 | Cc1c(S(=O)(=O)N2CCN(C(C)c3nc4ccccc4c(=O)n3C)CC2)sc2ccc(Cl)cc12 (stereo not shown) [compound 270] |
| 10 to 25 | 25 to 100 | COc1ccc(S(=O)(=O)N2CCC(C(C)c3nc4ccccc4c(=O)[nH]3)CC2)cc1 (stereo not shown) [compound 405] |
| < 10 | > 100 | COc1ccc(S(=O)(=O)N2CCN(C(C)c3nc(N4CCC(Cc5ccccc5)CC4)c4ccccc4n3)CC2)cc1 (stereo not shown) [compound 389] |
| 25 to 60 | 25 to 100 | CC(c1nc2ccc(Cl)cc2c(=O)n1C)N1CCN(C(=O)Nc2ccccc2Br)C(C)C1 (stereo not shown) [compound 2] |
| 25 to 60 | < 25 | COc1ccc(S(=O)(=O)N(C)CCNC(C)c2nc3ccccc3c(=O)n2C)cc1 (stereo not shown) [compound 211] |
| 25 to 60 | < 25 | COc1ccc(S(=O)(=O)N(C)CCN(C(C)c2nc3ccccc3c(=O)n2C)S(=O)(=O)c2ccc(OC)cc2)cc1 (stereo not shown) [compound 200] |
| < 10 | 25 to 100 | CC(c1nc2ccc(Cl)cc2c(=O)n1C)N1CCN(S(=O)(=O)c2ccc(C(F)(F)F)cc2)CC1 (stereo not shown) [compound 73] |
|  | < 25 | CC(NCC1CCCCN1)c1nc2ccccc2c(=O)n1C (stereo not shown) [compound 183] |
| 25 to 60 | 25 to 100 | COc1ccc(S(=O)(=O)N2CCC(N(C)C(C)c3nc4ccccc4c(=O)n3C)CC2)cc1 (stereo not shown) [compound 314] |
| 25 to 60 | < 25 | COC(=O)c1ccccc1S(=O)(=O)N1CCN(C(C)c2nc3ccccc3c(=O)n2C)CC1 (stereo not shown) [compound 245] |
| 10 to 25 | < 25 | COc1ccc(C(=O)N2CCN(C(C)c3nc4ccccc4c(=O)n3C)CC2)cc1OC (stereo not shown) [compound 76] |
| < 10 | > 100 | COc1ccc(S(=O)(=O)N2CCN(C(C)c3nc(OC4CCC(C)C(C)C4)c4ccccc4n3)CC2)cc1 (stereo not shown) [compound 348] |
| < 10 | 25 to 100 | CC(c1nc2ccccc2c(=O)n1C)N1CCCN(S(=O)(=O)c2ccc(Br)cc2)CC1 (stereo not shown) [compound 172] |
| < 10 | > 100 | COc1ccc2nc(C(C)N3CCN(S(=O)(=O)c4ccc(Br)cc4)CC3)n(C)c(=O)c2c1 (stereo not shown) [compound 132] |
| < 10 | > 100 | CCC(c1nc2ccccc2c(=O)n1CC)N1CCN(S(=O)(=O)c2ccc(OC)cc2)CC1 (stereo not shown) [compound 338] |
| 25 to 60 | 25 to 100 | CCCn1c(C(C)N2CCN(C(=O)CSc3ccccc3)CC2)nc2ccccc2c1=O (stereo not shown) [compound 46] |
| 25 to 60 | 25 to 100 | CC(c1nc2ccccc2c(=O)n1C)N1CCN(S(=O)(=O)c2ccc3oc(=O)ccc3c2)CC1 (stereo not shown) [compound 252] |
| 25 to 60 | 25 to 100 | COc1ccc(S(=O)(=O)N2CCN(C(C)c3ncc4ccccc4n3)CC2)cc1 (stereo not shown) [compound 312] |
| 25 to 60 | < 25 | Cn1c(CN2CCN(S(=O)(=O)c3ccc(Br)cc3)CC2)nc2ccc(Cl)cc2c1=O [compound 84] |
| 10 to 25 | 25 to 100 | CC(NC1CCN(S(=O)(=O)c2ccc(Cl)cc2)CC1)c1nc2ccccc2c(=O)n1C (stereo not shown) [compound 209] |

| SMILES | EC50 [µM] | Emax [%] |
| --- | --- | --- |
| CC(c1nc2cc(Cl)ccc2c(=O)n1C)N1CCN(C(=O)Cc2ccccc2)CC1 (stereo not shown) [compound 112] | 10 to 25 | < 25 |
